Tests used:
K562 = settings: read-out: IC50 (K562); cytotoxicity, 24 h
Experimental: (§2) The resazurin reduction assay, which is also known as AlamarBlue® assay, was used for the determination of cell viability in all cytotoxicity determinations shown in the present work, as previously described [22]. Briefly, cells were seeded at a specific density depending on the incubation time (24 h: 1 × 10^6 cells/ml) in a 96-well plate and incubated with increasing compound concentrations (0.01–30 µM). After the specified treatment time, resazurin (Sigma, #R7017) was added to a final concentration of 40 µM. […] The viability of control cells was set to 100% and all other values were normalized to the control condition, the dose-response curves were then fitted with Prism v7.01 (GraphPad software, La Jolla, CA, USA). The reduction of resazurin to resorufin is proportional to aerobic respiration; therefore, it is used as a measure for the cell viability and cytotoxicity of a tested compound.

DYRK4 = target: T1, DYRK4 (Homo sapiens, UniProt Q9NR20); experiment: kinome screen (33PanQinase); type: biochemical
T1 construct: purchased Reaction Biology Europe GmbH (formerly ProQinase)
T1 sequence (Q9NR20 1-520): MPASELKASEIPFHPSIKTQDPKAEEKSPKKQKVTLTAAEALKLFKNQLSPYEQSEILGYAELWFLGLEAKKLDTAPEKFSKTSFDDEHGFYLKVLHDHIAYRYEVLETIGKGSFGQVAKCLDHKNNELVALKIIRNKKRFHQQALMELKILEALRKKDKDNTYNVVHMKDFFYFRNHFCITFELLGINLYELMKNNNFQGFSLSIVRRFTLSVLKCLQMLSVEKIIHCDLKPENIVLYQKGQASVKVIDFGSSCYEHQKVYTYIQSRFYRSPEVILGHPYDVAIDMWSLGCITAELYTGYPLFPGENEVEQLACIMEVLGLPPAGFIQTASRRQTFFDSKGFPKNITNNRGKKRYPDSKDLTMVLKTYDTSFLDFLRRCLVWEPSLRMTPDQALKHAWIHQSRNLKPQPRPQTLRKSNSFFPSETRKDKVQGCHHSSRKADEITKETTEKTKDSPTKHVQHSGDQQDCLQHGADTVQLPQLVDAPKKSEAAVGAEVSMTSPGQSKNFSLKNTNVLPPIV
Experimental: (§1) The Kinome Screening was performed by Reaction Biology Europe GmbH (http://reactionbiology.com; Freiburg i. Br., Germany). […] A kinase inhibition profile of the three meriolins was determined by measuring residual activity at two concentrations each in single values in 335 wild-type protein kinase assays.
The residual activity was calculated as: Res.Activity%=100x(Signalofcompound−lowcontrol/highcontrol−lowcontrol)

MOLT4 = settings: read-out: IC50 (MOLT4); cytotoxicity, 24 h
Experimental: as §2

HPBALL = settings: read-out: IC50 (HPBALL); cytotoxicity, 24 h
Experimental: as §2

Ramos cells = experiment: BrdU cell proliferation assay; type: cell-based, human; settings: 24 h, non-lethal doses
Experimental: The Bromodeoxyuridine (BrdU) Cell Proliferation kit from Millipore (#QIA58-1000TEST) was used to measure proliferation of cells. The manufacturer protocol has been optimized as described in the following. 1 × 10^4 cells per well were seeded in a 96-well plate. The cells were pre-incubated with the compounds of interest for 1 h. Following this, the BrdU solution was added and the cells were incubated for a total of 24 h. BrdU is an analog of the nucleoside thymidine and is incorporated into the DNA of dividing cells during replication. Culture medium was removed and cells were fixed and denatured with Fixative/Denaturing solution for 30 min at room temperature. Since suspension cells were used, they had to be centrifuged at 1200 rpm for 5 min after each following step. After, the anti-BrdU-antibody was incubated for 1 h at RT. Cells were washed three times with washing buffer. The secondary antibody, which is coupled to HRP (horseradish peroxidase) was incubated for 30 min at RT. Again, cells were washed three times with washing buffer.
Then, the substrate solution was added, that contained TMB (3,3’,5,5’-Tetramethylbenzidine), which is oxidized by HRP. Oxidation of TMB causes a color change from colorless to blue. The intensity of color change is correlated with the number of bound peroxidases, which depends on the quantity of primary antibodies and therefore on the content of the incorporated BrdU. If the cells are not proliferating, no BrdU is incorporated, resulting in a weak signal.
After 15 min incubation time the stopping reagent was added, causing a pH change and resulting in a color change from blue to yellow. The colored reaction product was quantified at 450 nm using a spectrophotometer. For all measurements, three technical replicates were made. The control was set to 100% proliferation, and the treated cells were normalized to the control. The results were visualized using GraphPad Prism 7.

[1] = test system: CLL17 chronic lymphocytic leukemia cells; settings: read-out: IC50 (CLL17); primary patient cells, 24 h
Description: (§3) For chronic lymphocytic leukemia, mononuclear cells were isolated from peripheral blood using a Ficoll gradient (GE Healthcare). Primary cells from other lymphoma entities were isolated as previously described [80]. All cells were cryopreserved after isolation and thawed as previously described [81].
(§4) The resazurin reduction assay, which is also known as AlamarBlue® assay, was used for the determination of cell viability in all cytotoxicity determinations shown in the present work, as previously described [22]. Briefly, cells were seeded at a specific density depending on the incubation time (24 h: 1 × 10^6 cells/ml) in a 96-well plate and incubated with increasing compound concentrations (0.01–30 µM). After the specified treatment time, resazurin (Sigma, #R7017) was added to a final concentration of 40 µM. […] The viability of control cells was set to 100% and all other values were normalized to the control condition, the dose-response curves were then fitted with Prism v7.01 (GraphPad software, La Jolla, CA, USA).

Jurkat = settings: read-out: IC50 (Jurkat); cytotoxicity, 24 h
Experimental: as §2

HL60 = settings: read-out: IC50 (HL60); cytotoxicity, 24 h
Experimental: as §2

[2] = test system: 335 wild-type protein kinases; experiment: kinome screen, selectivity score; type: biochemical
Experimental: as §1
The selectivity score was calculated as: SelectivityScore=Countofdatapoints<50%/(Totalnumberofdatapoints)

[3] = test system: retinoblastoma (RB) protein phosphorylation; experiment: immunoblotting of phospho-RB in Ramos cells; type: cell-based, human; settings: for phosphorylation of RB at p-Ser249 and p-Thr252: 0.1 or 1 µM (R547 1 µM)
Experimental: Cells were seeded at a density of 2 × 10^6 cells, treated as specified and harvested by centrifugation at 3000 rpm for 5 min, followed by freezing in liquid nitrogen. The cell pellets were thawed on ice and quick-frozen and defrozen in liquid nitrogen for three times, then lysed on ice in lysis buffer (20 mM Tris-HCl, 150 mM NaCl, 1% v/v Triton X-100, 0.5 mM EDTA, 10 mM NaF, 2.5 mM Na4P2O7, protease inhibitor (Sigma, #P2714)) for 30 min, accompanied by vortexing. Subsequently, centrifugation 13,300 rpm for 15 min purified cell lysates from cell debris. The supernatant was transferred to a new tube and the protein concentration was determined by Bradford assay. The samples were diluted with sample buffer. SDS-Page and Western Blot were conducted in accordance with standard workflows. […] The antibody baths were stored at 4 °C and re-used.
The density of the individual protein band was determined using Image Studio^TM Lite Version 5.2. The density of each protein was divided by the average of all bands of this protein. The ratios of the protein of interest were normalized to the ratio of the respective loading control. To determine the fold change, each normalized ratio was divided by the normalized band of the control line (untreated cells). Fold change is 1 for the control line, n ≥ 2. The results are shown as mean ± standard deviation and were visualized with GraphPad Prism 7.

[4] = test system: FL303 follicular lymphoma cells; settings: read-out: IC50 (FL303); primary patient cells, 24 h
Description: as §3, §2

[5] = test system: CLL16 chronic lymphocytic leukemia cells; settings: read-out: IC50 (CLL16); primary patient cells, 24 h
Description: as §3, §2

[6] = test system: FL169 follicular lymphoma cells; settings: read-out: IC50 (FL169); primary patient cells, 24 h
Description: as §3, §4

COc1ccnc2[nH]cc(-c3cc(N)nc(N)c3)c12 [meriolin 16]
IC50 (K562): 40 nM | residual kinase activity (DYRK4; 0.03 µM): 39 % of control | residual kinase activity (DYRK4; 0.3 µM): 7 % of control | IC50 (MOLT4): 20 nM | IC50 (HPBALL): 20 nM | proliferation (BrdU incorporation) (Ramos cells): substantial decrease in proliferation | IC50 [1]: 50 nM | IC50 (Jurkat): 30 nM | IC50 (HL60): 10 nM | Selectivity Score (< 50% residual activity) ([2]; 0.03 µM): 0.140 | Selectivity Score (< 50% residual activity) ([2]; 0.3 µM): 0.284 | phosphorylation of RB at p-Ser612 and p-Thr821 ([3]; 0.1 and 1 µM, up to 24 h): no longer phosphorylated | phosphorylation of RB at p-Ser612 and p-Thr821 ([3]; 0.1 and 1 µM, up to 24 h, listed as Meriolin 16): loss of the phosphorylations | phosphorylation of RB at p-Ser249 and p-Thr252 ([3]; up to 24 h): reduced the phosphorylation | IC50 [4]: 60 nM | IC50 [5]: 60 nM | IC50 [6]: 2820 nM

c1ccc(CNc2cc(-c3c[nH]c4ncccc34)ccn2)cc1 [meriolin 36]
IC50 (K562): 940 nM | residual kinase activity (DYRK4; 0.3 µM): 66 % of control | residual kinase activity (DYRK4; 3 µM): 22 % of control | IC50 (MOLT4): 3480 nM | IC50 (HPBALL): 3440 nM | proliferation (BrdU incorporation) (Ramos cells): substantial decrease in proliferation | IC50 [1]: 110 nM | IC50 (Jurkat): 1430 nM | IC50 (HL60): 1230 nM | Selectivity Score (< 50% residual activity) ([2]; 0.3 µM): 0.397 | Selectivity Score (< 50% residual activity) ([2]; 3 µM): 0.752 | phosphorylation of RB at Ser612 ([3]; 0.1 and 1 µM): increase of the phosphorylation | phosphorylation of RB at p-Thr821 ([3]; 0.1 and 1 µM (R547 1 µM), up to 24 h): no notable change | phosphorylation of RB at p-Ser612 and p-Thr821 ([3]; 0.1 and 1 µM, up to 24 h): This effect was not observed | phosphorylation of RB at p-Ser249 and p-Thr252 ([3]; up to 24 h): no effect | IC50 [4]: 170 nM | IC50 [5]: 200 nM | IC50 [6]: 100 nM
